In one assay the test system is L monocytogenes S23. In words: Chicken soup trial at 8° C. The class given is cell-based, Listeria monocytogenes. To be noted: chicken soup at 8° C., TCSM010521, APP215. From the text:
A local supermarket brand of cream of chicken soup was used as a model food system. 600 g packs were purchased from the local supermarket. This was a ‘fresh home-made type’ of soup that was stored in the chill cabinet, with a short shelf life. It was chosen because it is a rich, nutritious food system containing a range of food components including meat, dairy and vegetable.
Ingredients were labelled as: chicken stock (water, duck fat, chicken, salt, flavourings, yeast extracts, pork gelatine, glucose syrup, vegetable concentrate, milk protein, sugar, malto-dextrin, vegetable oil, citric acid, lactose, chicken fat), ilk, chicken (9%), cream (8%), onion, potato, vegetable oil, modified maize starch, wheat flour, lemon juice, salt, white pepper. pH 5.912. Protein: 3.3%; carbohydrate: 4.7%; fat: 7.2%; fibre: 0.2%; sodium: 0.1%
For the test the soup was mixed 2:1 in water (to facilitate sampling and mixing) and sterilised by autoclaving at 121° C. for 15 minutes. For each experiment the pH of the soup was recorded; this was between pH 5.79-5.88.
For TCS010521/8 (incubated at 8° C.), samples were prepared in 27.8 g quantities. 1.5 g of an APP stock solution was added, and the tests inoculated with 0.3 ml of a suitably diluted cell or spore suspension to give a final inoculum of ca. 10^3 cfu/g. APP was tested at 0, 500 and 1000 ppm, and batch number APP20010213 (at 169 mg/ml) was used. The tests were sampled by viable count and then incubated at 8° C. and tested on a twice-weekly basis.

The next assay concerns Salm. Typhimurium S29. Put plainly: Bioscreen growth inhibition test. The class given is cell-based, Salmonella Typhimurium. To be noted: BS010411, 24 h/30° C. Here is the method: (§1) For broth cultures and Bioscreen testing most bacteria were grown in Brain Heart Infusion (BHI, Oxoid, pH 7.4). Lactobacillus sake A10 was grown in de Man, Rogosa, Sharpe medium ([…], Oxoid). Yeasts were grown in Sabouraud Liquid medium (SLM, Oxoid). Most bacteria were cultured at 30° C. Lactic acid bacteria were grown on solid medium in enriched CO2 atmosphere. Clostridium species were grown in Reinforced Clostridial Medium (RCM) at 37° C. anaerobically. Brochothrix thermosphacta fungi and yeasts were grown at 25° C. Fungi were cultured on Malt Extract Agar (MEA, Oxoid).
(§2) An automated Microbiology Reader Bioscreen C was used to measure growth curves of the strains in the presence and absence of APP. The Bioscreen C measures the development of turbidity (i.e. growth) kinetically by vertical photometry in 200 wells of a honeycomb microtitre plate, simultaneously. The system consists of a Bioscreen C analyser, which is an incubator and measurement unit, integrated with a PC, software (BioLink v 5.30), printer and a ‘Honeycomb 2’ cuvette multiwell plate. Growth curve data can be analysed within the BioLink software or exported to programs such as Excel.
(§3) Broth culture media were dispensed in 270 μl volumes into the wells as directed. Serial dilutions of a filter-sterilised APP stock solution were then dispensed into the same wells, as appropriate. The wells were inoculated with 30 μl of an appropriately diluted overnight broth culture or spore suspension, to give a final inoculum level of […]. The tests were incubated in the Bioscreen C for either 24 h at 30° C., or 72 h at 25° C. (depending on the micro-organism under investigation) with readings taken every 20 minutes after the trays were shaken. After the incubation period was complete the data were exported to Excel for analysis.

The next assay relates to Y. enterocolitica S16. In words: Bioscreen growth inhibition test. It counts as cell-based, Yersinia enterocolitica. To be noted: BS010510, 24 h/30, APP20010213. Here is the method: as §1, §2
Broth culture media were dispensed in 270 μl volumes into the wells as directed. […] (depending on the micro-organism under investigation) with readings taken every 20 minutes after the trays were shaken. […]

The next assay relates to B. cereus 3.046. In words: Bioscreen growth inhibition test. Particulars: BS010510, 24 h at 30° C., APP20010213. The class given is cell-based, Bacillus cereus. Here is the method: as §1, §2, §3
In the next assay the test system is B. cereus Campden. In words: Bioscreen growth inhibition test. It counts as cell-based, Bacillus cereus. To be noted: BS010411, 24 h at 30° C. On the procedure: as §1, §2, §3
For assay [1], the system named is B. cereus 204. Put plainly: Bioscreen growth inhibition test. The class given is cell-based, Bacillus cereus. To be noted: BS010411, 24 h at 30° C. Here is the method:
as §1, §2, §3

Assay [2] concerns L. monocytogenes 272. In words: Test in cooked sausage meat slurry. The class given is cell-based, Listeria monocytogenes. From the text: 500 g of bologna sausage meat mixture was mixed with 500 g Brain Heart Infusion broth (BHIB) to make a homogeneous slurry. The bologna sausage meat mix comprised (g per kg): lean beef 320; lean pork 202; lard 250; water 40; glucose 5; starch 155; spice mix 3.75; sodium glutamate 0.5; sodium erythorbate 0.545; sodium di-phosphate 3; NaCl 20; sodium nitrite 0.15. 200 g samples of the meat slurry were autoclaved. While the meat was still warm it was re-mixed thoroughly. When the meat had cooled it was inoculated with 2 ml of 10^5 cfu/ml spore or cell suspension, and re-mixed again. Each inoculated meat sample was divided into 3×50 g samples, and 1 ml of either SDW, 2.5% or 5% APP solution (batch number APP 20010215) was added to prepare meat samples containing 0, 500 and 1000 ppm APP. The meat slurry was again shaken thoroughly to ensure even mixing, an initial viable count was taken and the samples incubated at 8° C. Samples were taken at twice-weekly intervals. The pH of the sausage meat slurry was 6.2.

For assay [3], the system named is B. cereus 204. Put plainly: Test in cooked minced chicken slurry. It counts as cell-based, Bacillus cereus. Particulars: 2000 ppm; minced chicken slurry at 8° C., pH 6.42, TCC010704. On the procedure: (§4) 1 kg of minced chicken (mainly lean meat) was purchased from the local butcher. This was mixed with 1 litre of BHI, mixed and dispensed as 100 g samples prior to autoclaving. When still warm, the meat was re-mixed thoroughly. When cooked, the meat was inoculated with 1 ml of 10^5 spores or cells (from an overnight broth), and re-mixed. The samples were then divided into 3×25 g portions, to which 0.5 ml of filter-sterilised APP20010215 was added (as 5% or 10% stock solutions) or water. An initial viable count was taken, and the samples then incubated at 8° C. and tested twice weekly. The pH of the chicken slurry was 6.42.

Assay [4] deals with L. monocytogenes 272. In words: Test in cooked minced chicken slurry. It counts as cell-based, Listeria monocytogenes. On the procedure: as §4

With `O=C1CC(CO)OC=C1O` (stereo not drawn) [APP, Ascopyrone P], the “Effect on growth rate” value in the assay with L monocytogenes S23 (500 ppm) is “Slight reduction of growth rate with 500 and 1000 ppm”; in the assay on L monocytogenes S23 (1000 ppm), “Slight reduction of growth rate with 500 and 1000 ppm”. For the same compound, the Effect on growth entry in the assay with L monocytogenes S23 (1000 ppm) is recorded as “No total inhibition by 1000 ppm”; in the assay on L. monocytogenes 272 [2] (1000 ppm, cooked sausage meat slurry at 8° C., pH 6.2, TSM010605), “No total inhibition”; with B. cereus 204 [3], “Partial inhibition by 2000 ppm”; in the assay on L. monocytogenes 272 [4] (2000 ppm, minced chicken slurry at 8° C., pH 6.42, TCC010704), “Slight inhibition by 2000 ppm only”. Moreover, the “APP level causing significant inhibition” value is recorded as 2000 ppm in the assay on Salm. Typhimurium S29 (APP 20010213); 2000 ppm in the assay on Salm. Typhimurium S29 (APP 20010215); 2000 ppm in the assay with B. cereus 3.046; 2000 ppm in the assay with B. cereus Campden (APP20010213); 2000 ppm in the assay on B. cereus Campden (APP20010215); 4000 ppm in the assay on B. cereus 204 [1] (APP20010213). For the same compound, the “APP level causing significant inhibition” value in the assay on B. cereus 204 [1] (APP20010215) was found to be 2000 ppm. For the same compound, the “APP level causing total inhibition” value in the assay on Salm. Typhimurium S29 (APP 20010213) was 4000 ppm; with Salm. Typhimurium S29 (APP 20010215), above 4000 ppm; with Y. enterocolitica S16, 2000 ppm; in the assay with B. cereus 3.046 it was 3000 ppm; with B. cereus Campden (APP20010213) it was 4000 ppm; in the assay with B. cereus Campden (APP20010215), above 4000 ppm. The “APP level causing total inhibition” value in the assay on B. cereus 204 [1] (APP20010213) was above 4000 ppm; with B. cereus 204 [1] (APP20010215), 4000 ppm. Moreover, the “10^6 reached at” value with L. monocytogenes 272 [2] (1000 ppm, cooked sausage meat slurry at 8° C., TSM010605, controls 7 d) was determined as 7 d. Also, the “Partial inhibition (effect on growth of target organism by APP)” value in the assay on L. monocytogenes 272 [2] (Cooked sausage meat slurry at 8° C. pH 6.2, (1000)) was “L. monocytog”. Moreover, the “No inhibition (effect on growth of target organism by 2000 ppm APP)” value in the assay with L. monocytogenes 272 [4] (Cooked minced chicken slurry at 8° C. pH 6.42, organism printed in brackets) was “(L. monocytogenes)”.
